Holding throughout (test): relative viability (nuclei count vs DMSO), 5 days (fraction); higher = more cells survive
Compound in the assay “Seliciclib + Trametinib”: CC[C@H](CO)Nc1nc(NCc2ccccc2)c2ncn(C(C)C)c2n1 [Seliciclib] + CC(=O)Nc1cccc(-n2c(=O)n(C3CC3)c(=O)c3c(Nc4ccc(I)cc4F)n(C)c(=O)c(C)c32)c1 [Trametinib] (partner 0.02 µM)
The method in brief: (§1)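 Values are medians from duplicate plates. Each reflects relative viability, defined as the nuclei count of treated wells over that of vehicle wells. Lung cancer cell lines in 1536-well plates were pin-tool dosed one day after seeding with one drug alone or with a fixed anchor-drug dose plus five library-drug doses (not always all listed) in √10 steps, then fixed, stained and imaged at 4× after 5 days.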

Compound in the assay “Seliciclib + Navitoclax”: CC[C@H](CO)Nc1nc(NCc2ccccc2)c2ncn(C(C)C)c2n1 [Seliciclib] + CC1(C)CCC(c2ccc(Cl)cc2)=C(CN2CCN(c3ccc(C(=O)NS(=O)(=O)c4ccc(N[C@H](CCN5CCOCC5)CSc5ccccc5)c(S(=O)(=O)C(F)(F)F)c4)cc3)CC2)C1 [Navitoclax] (partner 0.5 µM)
The method in brief: as §1

Compound in the assay “Seliciclib + Phenformin”: CC[C@H](CO)Nc1nc(NCc2ccccc2)c2ncn(C(C)C)c2n1 [Seliciclib] + N=C(N)NC(=N)NCCc1ccccc1 [Phenformin] (partner 250 µM)
The method in brief:
as §1

Compound in the assay “Seliciclib + Pemetrexed”: CC[C@H](CO)Nc1nc(NCc2ccccc2)c2ncn(C(C)C)c2n1 [Seliciclib] + Nc1nc2[nH]cc(CCc3ccc(C(=O)N[C@@H](CCC(=O)O)C(=O)O)cc3)c2c(=O)[nH]1 [Pemetrexed] (partner 0.2 µM)
The method in brief:
as §1

On to NCI-H2347, for which the relative viability with Seliciclib + Trametinib (first compound 0.08 µM) amounted to 0.259; with Seliciclib + Trametinib (first compound 0.253 µM), 0.323; with Seliciclib + Trametinib (first compound 0.8 µM) it was 0.331; with Seliciclib + Trametinib (first compound 2.53 µM) it was 0.278; with Seliciclib + Trametinib (first compound 8 µM) it was 0.279; with Seliciclib + Navitoclax (first compound 0.08 µM) it was 0.763. Further, the relative viability is 0.801 with Seliciclib + Navitoclax (first compound 0.253 µM); 0.73 with Seliciclib + Navitoclax (first compound 0.8 µM); 0.859 with Seliciclib + Navitoclax (first compound 2.53 µM); 0.568 with Seliciclib + Navitoclax (first compound 8 µM); 0.536 with Seliciclib + Phenformin (first compound 0.08 µM); 0.397 with Seliciclib + Phenformin (first compound 0.253 µM). Further, the relative viability with Seliciclib + Phenformin (first compound 0.8 µM) came to 0.319; with Seliciclib + Phenformin (first compound 2.53 µM), 0.298; with Seliciclib + Phenformin (first compound 8 µM), 0.408; with Seliciclib + Pemetrexed (first compound 0.08 µM) it was 0.409; with Seliciclib + Pemetrexed (first compound 0.253 µM), 0.454; in the assay with Seliciclib + Pemetrexed (first compound 0.8 µM), 0.419. Besides, the relative viability with Seliciclib + Pemetrexed (first compound 2.53 µM) came out at 0.437; with Seliciclib + Pemetrexed (first compound 8 µM), 0.42.

For the cell line NCI-H2126, the relative viability in the assay with Seliciclib + Trametinib (first compound 0.08 µM) amounted to 0.581; with Seliciclib + Trametinib (first compound 0.253 µM), 0.54; with Seliciclib + Trametinib (first compound 0.8 µM), 0.623; with Seliciclib + Trametinib (first compound 2.53 µM) it was 0.525; with Seliciclib + Trametinib (first compound 8 µM) it was 0.449; with Seliciclib + Navitoclax (first compound 0.08 µM) it was 0.817. Moreover, the relative viability with Seliciclib + Navitoclax (first compound 0.253 µM) came out at 0.799; with Seliciclib + Navitoclax (first compound 0.8 µM), 0.844; with Seliciclib + Navitoclax (first compound 2.53 µM) it was 0.878; with Seliciclib + Navitoclax (first compound 8 µM), 0.787; with Seliciclib + Phenformin (first compound 0.08 µM) it was 0.518; with Seliciclib + Phenformin (first compound 0.253 µM) it was 0.489. For the same cell line, the relative viability turned out to be 0.518 with Seliciclib + Phenformin (first compound 0.8 µM); 0.359 with Seliciclib + Phenformin (first compound 2.53 µM); 0.467 in the assay with Seliciclib + Phenformin (first compound 8 µM); 0.631 with Seliciclib + Pemetrexed (first compound 0.08 µM); 0.683 with Seliciclib + Pemetrexed (first compound 0.253 µM); 0.682 in the assay with Seliciclib + Pemetrexed (first compound 0.8 µM). The relative viability with Seliciclib + Pemetrexed (first compound 2.53 µM) turned out to be 0.515; with Seliciclib + Pemetrexed (first compound 8 µM), 0.542.

On to HCC-827, for which the relative viability with Seliciclib + Trametinib (first compound 0.08 µM) came to 0.494; with Seliciclib + Trametinib (first compound 0.253 µM), 0.519; with Seliciclib + Trametinib (first compound 0.8 µM), 0.525; with Seliciclib + Trametinib (first compound 2.53 µM), 0.533; in the assay with Seliciclib + Trametinib (first compound 8 µM) it was 0.365; in the assay with Seliciclib + Navitoclax (first compound 0.08 µM) it was 1. The relative viability worked out at 1.03 with Seliciclib + Navitoclax (first compound 0.253 µM); 1.01 with Seliciclib + Navitoclax (first compound 0.8 µM); 0.976 with Seliciclib + Navitoclax (first compound 2.53 µM); 0.953 in the assay with Seliciclib + Navitoclax (first compound 8 µM); 0.4 with Seliciclib + Phenformin (first compound 0.08 µM); 0.422 in the assay with Seliciclib + Phenformin (first compound 0.253 µM). Also, the relative viability stood at 0.402 with Seliciclib + Phenformin (first compound 0.8 µM); 0.435 with Seliciclib + Phenformin (first compound 2.53 µM); 0.351 in the assay with Seliciclib + Phenformin (first compound 8 µM); 0.251 in the assay with Seliciclib + Pemetrexed (first compound 0.08 µM); 0.241 in the assay with Seliciclib + Pemetrexed (first compound 0.253 µM); 0.258 in the assay with Seliciclib + Pemetrexed (first compound 0.8 µM). For the same cell line, the relative viability came to 0.297 with Seliciclib + Pemetrexed (first compound 2.53 µM) and 0.258 with Seliciclib + Pemetrexed (first compound 8 µM).

Regarding NCI-H3122, the relative viability in the assay with Seliciclib + Trametinib (first compound 0.08 µM) amounted to 0.225; with Seliciclib + Trametinib (first compound 0.253 µM), 0.136; in the assay with Seliciclib + Trametinib (first compound 0.8 µM), 0.234; with Seliciclib + Trametinib (first compound 2.53 µM), 0.211; with Seliciclib + Trametinib (first compound 8 µM) it was 0.221; with Seliciclib + Navitoclax (first compound 0.08 µM), 1.02. Further, the relative viability with Seliciclib + Navitoclax (first compound 0.253 µM) turned out to be 1.07; in the assay with Seliciclib + Navitoclax (first compound 0.8 µM), 1.01; with Seliciclib + Navitoclax (first compound 2.53 µM) it was 1.03; with Seliciclib + Navitoclax (first compound 8 µM), 0.903; with Seliciclib + Phenformin (first compound 0.08 µM), 0.374; in the assay with Seliciclib + Phenformin (first compound 0.253 µM) it was 0.439. In addition, the relative viability in the assay with Seliciclib + Phenformin (first compound 0.8 µM) turned out to be 0.368; with Seliciclib + Phenformin (first compound 2.53 µM), 0.384; in the assay with Seliciclib + Phenformin (first compound 8 µM), 0.353; in the assay with Seliciclib + Pemetrexed (first compound 0.08 µM), 0.207; with Seliciclib + Pemetrexed (first compound 0.253 µM), 0.211; with Seliciclib + Pemetrexed (first compound 0.8 µM), 0.177. In addition, the figures for the relative viability in the assay with Seliciclib + Pemetrexed (first compound 2.53 µM) and in the assay with Seliciclib + Pemetrexed (first compound 8 µM) were 0.205 and 0.228, respectively.

Consider HOP-62, for which the relative viability with Seliciclib + Trametinib (first compound 0.08 µM) was determined as 0.377; in the assay with Seliciclib + Trametinib (first compound 0.253 µM), 0.302; with Seliciclib + Trametinib (first compound 0.8 µM), 0.377; with Seliciclib + Trametinib (first compound 2.53 µM) it was 0.418; in the assay with Seliciclib + Trametinib (first compound 8 µM), 0.431; in the assay with Seliciclib + Navitoclax (first compound 0.08 µM), 1.01. The relative viability with Seliciclib + Navitoclax (first compound 0.253 µM) is 1.1; in the assay with Seliciclib + Navitoclax (first compound 0.8 µM), 0.909; in the assay with Seliciclib + Navitoclax (first compound 2.53 µM) it was 1.12; with Seliciclib + Navitoclax (first compound 8 µM) it was 0.926; with Seliciclib + Phenformin (first compound 0.08 µM), 0.665; with Seliciclib + Phenformin (first compound 0.253 µM) it was 0.699. The relative viability with Seliciclib + Phenformin (first compound 0.8 µM) is 0.75; with Seliciclib + Phenformin (first compound 2.53 µM) it was 0.713; in the assay with Seliciclib + Phenformin (first compound 8 µM) it was 0.576; with Seliciclib + Pemetrexed (first compound 0.08 µM), 0.285; with Seliciclib + Pemetrexed (first compound 0.253 µM), 0.326; in the assay with Seliciclib + Pemetrexed (first compound 0.8 µM), 0.383. Further, the relative viability with Seliciclib + Pemetrexed (first compound 2.53 µM) is 0.339; with Seliciclib + Pemetrexed (first compound 8 µM), 0.351.

Regarding HCC-44, the relative viability with Seliciclib + Trametinib (first compound 0.08 µM) is 1.09; with Seliciclib + Trametinib (first compound 0.253 µM), 1.17; with Seliciclib + Trametinib (first compound 0.8 µM) it was 0.999; in the assay with Seliciclib + Trametinib (first compound 2.53 µM), 0.933; with Seliciclib + Trametinib (first compound 8 µM) it was 1.06; with Seliciclib + Navitoclax (first compound 0.08 µM), 1.05. Also, the relative viability with Seliciclib + Navitoclax (first compound 0.253 µM) worked out at 0.934; in the assay with Seliciclib + Navitoclax (first compound 0.8 µM), 0.957; with Seliciclib + Navitoclax (first compound 2.53 µM) it was 1.07; in the assay with Seliciclib + Navitoclax (first compound 8 µM) it was 1.03; with Seliciclib + Phenformin (first compound 0.08 µM) it was 0.309; with Seliciclib + Phenformin (first compound 0.253 µM), 0.126. For the same cell line, the relative viability with Seliciclib + Phenformin (first compound 0.8 µM) worked out at 0.375; with Seliciclib + Phenformin (first compound 2.53 µM), 0.0882; in the assay with Seliciclib + Phenformin (first compound 8 µM) it was 0.174; with Seliciclib + Pemetrexed (first compound 0.08 µM), 0.631; in the assay with Seliciclib + Pemetrexed (first compound 0.253 µM) it was 0.676; with Seliciclib + Pemetrexed (first compound 0.8 µM), 0.684. Besides, the figures for the relative viability in the assay with Seliciclib + Pemetrexed (first compound 2.53 µM) and with Seliciclib + Pemetrexed (first compound 8 µM) were 0.617 and 0.645, respectively.

(Values after the supplement of paper PMC10307832.)
